Measured values: PubChem BioAssay AID2060897 (Molecular Pharmacology Branch, DTP, NCI, 2025)

Tested on: 966289-007-R4-J1-PDC complex spheroid viability
Assay: Anticancer human tumor 966289-007-R4-J1-PDC patient-derived pancreatic adenocarcinoma cell line growth inhibition [RAS]
Conditions: for IC50: curve of first compound; for viability, T/C: stronger effect = lower value
Procedure, shortened: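 Agents were tested in combination matrices in half-log decrements from a top concentration at or near clinical Cmax (10 microM if undetermined). Targets were multi-cell spheroids of tumour lines plus HUVEC and MSC stromal cells.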

[1] = second compound 0.0316 µM, first compound 0.0316 µM
[2] = second compound 0.0316 µM, first compound 0.1 µM
[3] = second compound 0.1 µM, first compound 0.0316 µM
[4] = second compound 0.1 µM, first compound 0.1 µM
[5] = second compound 0.316 µM, first compound 0.0316 µM
[6] = second compound 0.316 µM, first compound 0.1 µM
[7] = second compound 1 µM, first compound 0.0316 µM
[8] = second compound 1 µM, first compound 0.1 µM
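Note: spheroids exposed to agents for one week before readout.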
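Throughout, for viability, T/C: percent viability relative to DMSO vehicle control wells as 100%.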

With `CC(=O)OC12COC1CC(O)C1(C)C(=O)C(O)C3=C(C)C(OC(=O)C(O)C(NC(=O)OC(C)(C)C)c4ccccc4)CC(O)(C(OC(=O)c4ccccc4)C21)C3(C)C` (stereo unspecified) + C=CC(=O)N1CCN(c2nc(OCC3CCCN3C)nc3c(F)c(-c4nc(N)cc(C)c4C(F)(F)F)c(Cl)cc23)C(C)C1 the IC50 (second compound 0.00316 µM) was < 31.6 nM, the IC50 (second compound 0.01 µM) was < 31.6 nM and the IC50 (second compound 0.0316 µM) was < 31.6 nM. The IC50 (second compound 0.1 µM) was < 31.6 nM, the IC50 (second compound 0.316 µM) was < 31.6 nM and the IC50 (second compound 1 µM) was < 31.6 nM. For the same molecule, the viability, T/C (second compound 0.00316 µM, first compound 0.0316 µM) was 7.49%, the viability, T/C (second compound 0.00316 µM, first compound 0.1 µM) was 11.8% and the viability, T/C (second compound 0.00316 µM, first compound 0.316 µM) was 14.4%. For the same molecule, the viability, T/C (second compound 0.00316 µM, first compound 1 µM) was 20.6%, the viability, T/C (second compound 0.00316 µM, first compound 3.16 µM) was 30.4% and the viability, T/C (second compound 0.00316 µM, first compound 10 µM) was 48.1%. It also gave a viability, T/C (second compound 0.01 µM, first compound 0.0316 µM) of 7.11%, a viability, T/C (second compound 0.01 µM, first compound 0.1 µM) of 11.6% and a viability, T/C (second compound 0.01 µM, first compound 0.316 µM) of 14.8%. The viability, T/C (second compound 0.01 µM, first compound 1 µM) was 19.2%, the viability, T/C (second compound 0.01 µM, first compound 3.16 µM) was 31.9% and the viability, T/C (second compound 0.01 µM, first compound 10 µM) was 60.7%. It also gave a viability, T/C [1] of 7.67%, a viability, T/C [2] of 13.9% and a viability, T/C (second compound 0.0316 µM, first compound 0.316 µM) of 10.9%. It also gave a viability, T/C (second compound 0.0316 µM, first compound 1 µM) of 18.2%, a viability, T/C (second compound 0.0316 µM, first compound 3.16 µM) of 33.2% and a viability, T/C (second compound 0.0316 µM, first compound 10 µM) of 56.3%. The viability, T/C [3] was 6.48%, the viability, T/C [4] was 12.7% and the viability, T/C (second compound 0.1 µM, first compound 0.316 µM) was 15.2%. For the same molecule, the viability, T/C (second compound 0.1 µM, first compound 1 µM) was 21.9%, the viability, T/C (second compound 0.1 µM, first compound 3.16 µM) was 30.4% and the viability, T/C (second compound 0.1 µM, first compound 10 µM) was 57.9%. For the same molecule, the viability, T/C [5] was 7.29%, the viability, T/C [6] was 12% and the viability, T/C (second compound 0.316 µM, first compound 0.316 µM) was 12.1%. It also gave a viability, T/C (second compound 0.316 µM, first compound 1 µM) of 15.3%, a viability, T/C (second compound 0.316 µM, first compound 3.16 µM) of 30.3% and a viability, T/C (second compound 0.316 µM, first compound 10 µM) of 56.1%. For the same molecule, the viability, T/C [7] was 8.02%, the viability, T/C [8] was 12.3% and the viability, T/C (second compound 1 µM, first compound 0.316 µM) was 12.5%. For the same molecule, the viability, T/C (second compound 1 µM, first compound 1 µM) was 19%, the viability, T/C (second compound 1 µM, first compound 3.16 µM) was 35.8% and the viability, T/C (second compound 1 µM, first compound 10 µM) was 49.2%.
`CC(C)n1nc(-c2ccc3oc(N)nc3c2)c2c(N)ncnc21` + C#Cc1c(F)ccc2cc(O)cc(-c3ncc4c(N5CC6CCC(C5)N6)nc(OCC56CCCN5CC(F)C6)nc4c3F)c12 showed an IC50 (second compound 0.0316 µM) of 46.5 nM, an IC50 (second compound 0.1 µM) of 49.9 nM and an IC50 (second compound 0.316 µM) of 38.8 nM. It also gave an IC50 (second compound 1 µM) of 42.6 nM, an IC50 (second compound 3.16 µM) of 41.5 nM and an IC50 (second compound 10 µM) of 23.3 nM. It also gave a viability, T/C (second compound 0.0316 µM, first compound 0.000316 µM) of 99.2%, a viability, T/C (second compound 0.0316 µM, first compound 0.001 µM) of 96.8% and a viability, T/C (second compound 0.0316 µM, first compound 0.00316 µM) of 91.8%. The viability, T/C (second compound 0.0316 µM, first compound 0.01 µM) was 106%, the viability, T/C [1] was 61.8% and the viability, T/C [2] was 26.6%. It also gave a viability, T/C (second compound 0.1 µM, first compound 0.000316 µM) of 104%, a viability, T/C (second compound 0.1 µM, first compound 0.001 µM) of 99.4% and a viability, T/C (second compound 0.1 µM, first compound 0.00316 µM) of 104%. The viability, T/C (second compound 0.1 µM, first compound 0.01 µM) was 110%, the viability, T/C [3] was 67% and the viability, T/C [4] was 24.1%. The viability, T/C (second compound 0.316 µM, first compound 0.000316 µM) was 111%, the viability, T/C (second compound 0.316 µM, first compound 0.001 µM) was 103% and the viability, T/C (second compound 0.316 µM, first compound 0.00316 µM) was 114%. It also gave a viability, T/C (second compound 0.316 µM, first compound 0.01 µM) of 109%, a viability, T/C [5] of 56.3% and a viability, T/C [6] of 21%. For the same molecule, the viability, T/C (second compound 1 µM, first compound 0.000316 µM) was 108%, the viability, T/C (second compound 1 µM, first compound 0.001 µM) was 118% and the viability, T/C (second compound 1 µM, first compound 0.00316 µM) was 119%. The viability, T/C (second compound 1 µM, first compound 0.01 µM) was 126%, the viability, T/C [7] was 59.7% and the viability, T/C [8] was 22%. It also gave a viability, T/C (second compound 3.16 µM, first compound 0.000316 µM) of 108%, a viability, T/C (second compound 3.16 µM, first compound 0.001 µM) of 113% and a viability, T/C (second compound 3.16 µM, first compound 0.00316 µM) of 125%. The viability, T/C (second compound 3.16 µM, first compound 0.01 µM) was 105%, the viability, T/C (second compound 3.16 µM, first compound 0.0316 µM) was 58.7% and the viability, T/C (second compound 3.16 µM, first compound 0.1 µM) was 22.4%. The viability, T/C (second compound 10 µM, first compound 0.000316 µM) was 97.4%, the viability, T/C (second compound 10 µM, first compound 0.001 µM) was 94.1% and the viability, T/C (second compound 10 µM, first compound 0.00316 µM) was 126%. It also gave a viability, T/C (second compound 10 µM, first compound 0.01 µM) of 96.8%, a viability, T/C (second compound 10 µM, first compound 0.0316 µM) of 33.2% and a viability, T/C (second compound 10 µM, first compound 0.1 µM) of 17%.
`O=C(c1ccc(F)c(F)c1Nc1ccc(I)cc1F)N1CC(O)([C@@H]2CCCCN2)C1` + CCn1c(-c2cc(N3CCN(C)CC3)cnc2C(C)OC)c2c3cc(ccc31)-c1csc(n1)CC(NC(=O)C1CC1C)C(=O)N1CCCC(N1)C(=O)OCC(C)(C)C2 was tested, and the IC50 (second compound 0.000949 µM) was 641 nM, the IC50 (second compound 0.003 µM) was 596 nM and the IC50 (second compound 0.00949 µM) was 228 nM. For the same molecule, the IC50 (second compound 0.03 µM) was 124 nM, the IC50 (second compound 0.0949 µM) was 45.2 nM and the IC50 (second compound 0.3 µM) was 32.1 nM. It also gave a viability, T/C (second compound 0.000949 µM, first compound 0.00316 µM) of 101%, a viability, T/C (second compound 0.000949 µM, first compound 0.01 µM) of 89.9% and a viability, T/C (second compound 0.000949 µM, first compound 0.0316 µM) of 106%. The viability, T/C (second compound 0.000949 µM, first compound 0.1 µM) was 77.7%, the viability, T/C (second compound 0.000949 µM, first compound 0.316 µM) was 74.2% and the viability, T/C (second compound 0.000949 µM, first compound 1 µM) was 36.2%. It also gave a viability, T/C (second compound 0.003 µM, first compound 0.00316 µM) of 92%, a viability, T/C (second compound 0.003 µM, first compound 0.01 µM) of 90.8% and a viability, T/C (second compound 0.003 µM, first compound 0.0316 µM) of 94.7%. For the same molecule, the viability, T/C (second compound 0.003 µM, first compound 0.1 µM) was 74.5%, the viability, T/C (second compound 0.003 µM, first compound 0.316 µM) was 75.5% and the viability, T/C (second compound 0.003 µM, first compound 1 µM) was 32.2%. The viability, T/C (second compound 0.00949 µM, first compound 0.00316 µM) was 83.8%, the viability, T/C (second compound 0.00949 µM, first compound 0.01 µM) was 96.2% and the viability, T/C (second compound 0.00949 µM, first compound 0.0316 µM) was 87.8%. For the same molecule, the viability, T/C (second compound 0.00949 µM, first compound 0.1 µM) was 82.5%, the viability, T/C (second compound 0.00949 µM, first compound 0.316 µM) was 37% and the viability, T/C (second compound 0.00949 µM, first compound 1 µM) was 22.6%. The viability, T/C (second compound 0.03 µM, first compound 0.00316 µM) was 87.3%, the viability, T/C (second compound 0.03 µM, first compound 0.01 µM) was 79.3% and the viability, T/C (second compound 0.03 µM, first compound 0.0316 µM) was 76.2%. The viability, T/C (second compound 0.03 µM, first compound 0.1 µM) was 54.2%, the viability, T/C (second compound 0.03 µM, first compound 0.316 µM) was 29.9% and the viability, T/C (second compound 0.03 µM, first compound 1 µM) was 15.5%. For the same molecule, the viability, T/C (second compound 0.0949 µM, first compound 0.00316 µM) was 97.5%, the viability, T/C (second compound 0.0949 µM, first compound 0.01 µM) was 93% and the viability, T/C (second compound 0.0949 µM, first compound 0.0316 µM) was 52.5%. The viability, T/C (second compound 0.0949 µM, first compound 0.1 µM) was 34.6%, the viability, T/C (second compound 0.0949 µM, first compound 0.316 µM) was 21.1% and the viability, T/C (second compound 0.0949 µM, first compound 1 µM) was 11%. It also gave a viability, T/C (second compound 0.3 µM, first compound 0.00316 µM) of 93.1%, a viability, T/C (second compound 0.3 µM, first compound 0.01 µM) of 76.5% and a viability, T/C (second compound 0.3 µM, first compound 0.0316 µM) of 52%. It also gave a viability, T/C (second compound 0.3 µM, first compound 0.1 µM) of 23.7%, a viability, T/C (second compound 0.3 µM, first compound 0.316 µM) of 19.7% and a viability, T/C (second compound 0.3 µM, first compound 1 µM) of 10.4%.
